Source: ChEMBL document CHEMBL3784961, “Kinetics and metabolism of paracetamol and phenacetin” (Br J Clin Pharmacol, 1980)

What was measured:
Homo sapiens [1] = test: Renal clearance in healthy human assessed as paracetamol sulfate level at 20 mg/kg; format: ADME, organism-based, Kidney; conditions: in vivo
Homo sapiens [2] = test: Drug recovery in poisoned human patient (9 patients) without liver damage receiving supportive treatment assessed as glucuronide conjugate level at 20 mg/kg, po; format: ADME, organism-based; conditions: in vivo
[3] = Drug excretion in urine of healthy young adult human assessed as sulphate conjugate level after 24 hrs; format: ADME; conditions: in vivo
[4] = Drug excretion in urine of healthy young adult human assessed as glucuronide conjugate level after 24 hrs; format: ADME; conditions: in vivo
Homo sapiens [5] = test: Drug recovery in poisoned human patient (3 patients) with severe liver damage receiving methionine treatment assessed as glucuronide conjugate level at 20 mg/kg, po; format: ADME, organism-based; conditions: in vivo
Homo sapiens [6] = test: Drug recovery in poisoned human patient (8 patients) with severe liver damage receiving supportive treatment assessed as mercapturate plus cysteine conjugate level at 20 mg/kg, po; format: ADME, organism-based; conditions: in vivo
Homo sapiens [7] = test: Mean drug recovery in poisoned human patient (9 patients) without liver damage receiving supportive treatment at 20 mg/kg, po; format: ADME, organism-based; conditions: in vivo
Homo sapiens [8] = test: Drug recovery in poisoned human patient (8 patients) with severe liver damage receiving NAC treatment assessed as sulphate conjugate level at 20 mg/kg, po; format: ADME, organism-based; conditions: in vivo
Homo sapiens [9] = test: Drug recovery in poisoned human patient (8 patients) with severe liver damage receiving NAC treatment assessed as mercapturate plus cysteine conjugate level at 20 mg/kg, po; format: ADME, organism-based; conditions: in vivo
Homo sapiens [10] = test: Mean drug recovery in poisoned human patient (8 patients) without liver damage receiving methionine treatment at 20 mg/kg, po; format: ADME, organism-based; conditions: in vivo
[11] = Half life in healthy young adult human; format: ADME, organism-based; conditions: in vivo
[12] = Drug excretion in human urine assessed as unchanged parent compound level; format: ADME; conditions: read-out: Drug excretion
[13] = Volume of distribution at central and peripheral compartment in healthy adult male human subject at 12 mg/kg, iv; conditions: in vivo
Homo sapiens [14] = test: Mean drug recovery in poisoned human patient (8 patients) with severe liver damage receiving NAC treatment at 20 mg/kg, po; format: ADME, organism-based; conditions: in vivo
Homo sapiens [15] = test: Drug recovery in poisoned human patient (23 patients) without liver damage receiving NAC treatment assessed as mercapturate plus cysteine conjugate level at 20 mg/kg, po; format: ADME, organism-based; conditions: in vivo
[16] = Drug excretion in urine of healthy young adult human assessed as unchanged parent drug level after 24 hrs; format: ADME; conditions: read-out: Drug excretion
Homo sapiens [17] = test: Mean drug recovery in poisoned human patient (8 patients) with severe liver damage receiving supportive treatment at 20 mg/kg, po; format: ADME, organism-based; conditions: in vivo
Homo sapiens [18] = test: Drug recovery in poisoned human patient (15 patients) without liver damage receiving cysteamine treatment assessed as sulphate conjugate level at 20 mg/kg, po; format: ADME, organism-based; conditions: in vivo
Homo sapiens [19] = test: Drug recovery in poisoned human patient (3 patients) with severe liver damage receiving methionine treatment assessed as mercapturate plus cysteine conjugate level at 20 mg/kg, po; format: ADME, organism-based; conditions: in vivo
Homo sapiens [20] = test: Drug recovery in poisoned human patient (8 patients) without liver damage receiving methionine treatment assessed as mercapturate plus cysteine conjugate level at 20 mg/kg, po; format: ADME, organism-based; conditions: in vivo
Homo sapiens [21] = test: Mean drug recovery in poisoned human patient (3 patients) with severe liver damage receiving methionine treatment at 20 mg/kg, po; format: ADME, organism-based; conditions: in vivo
[22] = Elimination half life in healthy adult male human subject at 12 mg/kg, iv; format: ADME, organism-based; conditions: in vivo, read-out: beta t1/2 (converted)
[23] = Systemic availability in human; format: ADME, organism-based; conditions: in vivo
Homo sapiens [24] = test: Mean drug recovery in poisoned human patient (15 patients) without liver damage receiving cysteamine treatment at 20 mg/kg, po; format: ADME, organism-based; conditions: in vivo
[25] = Half life in elderly human; format: ADME, organism-based; conditions: in vivo
Homo sapiens [26] = test: Drug recovery in poisoned human patient (8 patients) without liver damage receiving methionine treatment assessed as sulphate conjugate level at 20 mg/kg, po; format: ADME, organism-based; conditions: in vivo
Homo sapiens [27] = test: Drug recovery in poisoned human patient (23 patients) without liver damage receiving NAC treatment assessed as sulphate conjugate level at 20 mg/kg, po; format: ADME, organism-based; conditions: in vivo
Homo sapiens [28] = test: Drug recovery in poisoned human patient (9 patients) without liver damage receiving supportive treatment assessed as mercapturate plus cysteine conjugate level at 20 mg/kg, po; format: ADME, organism-based; conditions: in vivo
Homo sapiens [29] = test: Drug recovery in poisoned human patient (8 patients) with severe liver damage receiving supportive treatment assessed as glucuronide conjugate level at 20 mg/kg, po; format: ADME, organism-based; conditions: in vivo
Homo sapiens [30] = test: Drug recovery in poisoned human patient (15 patients) without liver damage receiving cysteamine treatment assessed as mercapturate plus cysteine conjugate level at 20 mg/kg, po; format: ADME, organism-based; conditions: in vivo
Homo sapiens [31] = test: Drug recovery in poisoned human patient (23 patients) without liver damage receiving NAC treatment assessed as glucuronide conjugate level at 20 mg/kg, po; format: ADME, organism-based; conditions: in vivo
Homo sapiens [32] = test: Drug recovery in poisoned human patient (8 patients) with severe liver damage receiving supportive treatment assessed as sulphate conjugate level at 20 mg/kg, po; format: ADME, organism-based; conditions: in vivo
[33] = Volume of distribution at central compartment in healthy adult male human subject at 12 mg/kg, iv; conditions: in vivo
Homo sapiens [34] = test: Drug recovery in healthy human subjects (8 subjects) assessed as sulphate conjugate level at 20 mg/kg, po; format: ADME, organism-based; conditions: in vivo
[35] = Systemic availability in healthy adult male human subject at 12 mg/kg, po; format: ADME, organism-based; conditions: in vivo
[36] = Drug excretion in urine of human at 20 mg/kg assessed as mercapturic conjugate level after 24 hrs; format: ADME, organism-based; conditions: in vivo
Homo sapiens [37] = test: Drug recovery in healthy human subjects (8 subjects) assessed as mercapturate plus cysteine conjugate level at 20 mg/kg, po; format: ADME, organism-based; conditions: in vivo
Homo sapiens [38] = test: Drug recovery in poisoned human patient (15 patients) without liver damage receiving cysteamine treatment assessed as glucuronide conjugate level at 20 mg/kg, po; format: ADME, organism-based; conditions: in vivo
[39] = Apparent volume of distribution in human; conditions: in vivo
Homo sapiens [40] = test: Drug recovery in poisoned human patient (9 patients) without liver damage receiving supportive treatment assessed as sulphate conjugate level at 20 mg/kg, po; format: ADME, organism-based; conditions: in vivo
Homo sapiens [41] = test: Drug recovery in poisoned human patient (8 patients) without liver damage receiving methionine treatment assessed as glucuronide conjugate level at 20 mg/kg, po; format: ADME, organism-based; conditions: in vivo
Homo sapiens [42] = test: Drug recovery in poisoned human patient (3 patients) with severe liver damage receiving methionine treatment assessed as sulphate conjugate level at 20 mg/kg, po; format: ADME, organism-based; conditions: in vivo
Homo sapiens [43] = test: Mean drug recovery in poisoned human patient (23 patients) without liver damage receiving NAC treatment at 20 mg/kg, po; format: ADME, organism-based; conditions: in vivo
Homo sapiens [44] = test: Drug recovery in poisoned human patient (8 patients) with severe liver damage receiving NAC treatment assessed as glucuronide conjugate level at 20 mg/kg, po; format: ADME, organism-based; conditions: in vivo
[45] = Volume of distribution in 70 kg adult human at 12 mg/kg, iv infused over 2 mins; conditions: in vivo
Homo sapiens [46] = test: Drug recovery in healthy human subjects (8 subjects) assessed as glucuronide conjugate level at 20 mg/kg, po; format: ADME, organism-based; conditions: in vivo
Homo sapiens [47] = test: Distribution half life in healthy adult male human subject at 12 mg/kg, iv; format: ADME, organism-based; conditions: in vivo
[48] = Elimination half life in healthy adult male human subject at 12 mg/kg, po; format: ADME, organism-based; conditions: in vivo, read-out: beta t1/2 (converted)
[49] = Half life in human; format: ADME, organism-based; conditions: in vivo
Homo sapiens [50] = test: Renal clearance in healthy human assessed as paracetamol glucuronide level at 20 mg/kg; format: ADME, organism-based, Kidney; conditions: in vivo

SMILES: CC(=O)Nc1ccc(OS(=O)(=O)O)cc1
- CL (Homo sapiens [1]): 166 mL/min

SMILES: CC(=O)Nc1ccc(O)cc1 [ACETAMINOPHEN]
- Drug recovery (Homo sapiens [2]): 75.3%
- Drug excretion [3]: 30%
- Drug excretion [4]: 55%
- Drug recovery (Homo sapiens [5]): 68.9%
- Drug recovery (Homo sapiens [6]): 15.2%
- Drug recovery (Homo sapiens [7]): 10.3 g
- Drug recovery (Homo sapiens [8]): 13.3%
- Drug recovery (Homo sapiens [9]): 16.5%
- Drug recovery (Homo sapiens [10]): 14.5 g
- half-life [11]: 2 h
- dose excreted [12]: 2%
- Vd [13]: 0.897 L/kg
- Drug recovery (Homo sapiens [14]): 13 g
- Drug recovery (Homo sapiens [15]): 10.6%
- dose excreted at 24 h [16]: 4%
- Drug recovery (Homo sapiens [17]): 11.8 g
- Drug recovery (Homo sapiens [18]): 11.9%
- Drug recovery (Homo sapiens [19]): 13.8%
- Drug recovery (Homo sapiens [20]): 8.1%
- Drug recovery (Homo sapiens [21]): 13.7 g
- half-life [22]: 1.98 h
- bioavailability [23]: 75%
- Drug recovery (Homo sapiens [24]): 14.5 g
- half-life [25]: 2.17 h
- Drug recovery (Homo sapiens [26]): 10.1%
- Drug recovery (Homo sapiens [27]): 14.5%
- Drug recovery (Homo sapiens [28]): 6.9%
- Drug recovery (Homo sapiens [29]): 66.5%
- Drug recovery (Homo sapiens [30]): 6.4%
- Drug recovery (Homo sapiens [31]): 63.6%
- Drug recovery (Homo sapiens [32]): 9.7%
- Vd [33]: 0.509 L/kg
- Drug recovery (Homo sapiens [34]): 32.3%
- bioavailability [35]: 76%
- Drug excretion [36]: 4%
- Drug recovery (Homo sapiens [37]): 8%
- Drug recovery (Homo sapiens [38]): 72.4%
- Vd [39]: 0.9 L/kg
- Drug recovery (Homo sapiens [40]): 9.3%
- Drug recovery (Homo sapiens [41]): 73.9%
- Drug recovery (Homo sapiens [42]): 9.1%
- Drug recovery (Homo sapiens [43]): 13.4 g
- Drug recovery (Homo sapiens [44]): 60.9%
- Vd at 2 min [45]: 65 L
- Drug recovery (Homo sapiens [46]): 54.7%
- alphat1/2 (Homo sapiens [47]): 0.13 h
- half-life [48]: 1.97 h

SMILES: CCOc1ccc(NC(C)=O)cc1 [PHENACETIN]
- half-life [49]: 1 h
- dose excreted [12]: < 0.5%

SMILES: CC(=O)Nc1ccc(O[C@@H]2O[C@H](C(=O)O)[C@@H](O)[C@H](O)[C@H]2O)cc1 [ACETAMINOPHEN GLUCURONIDE]
- CL (Homo sapiens [50]): 130 mL/min
